A short description of this data set: Dynamic light scattering (DLS) particle size. It is filed as physicochemical. The settings on record: in chloroform; reverse micelles at w=11.9. How it is done: Samples for dynamic light scattering are prepared by dissolving 1 mg of sample into 4 mL of solvent. The solution was then filtered through a 0.45 μm syringe filter into quartz cuvette with a path length of 2 cm. The measurements are obtained on a Malvern Zetasizer Nano.
Solubility properties dictate that gluc anions reside in the aqueous polar region of the reverse micelle and remain associated with CDA through the pairing of carboxylate with the cationic […] head group of CDA.

As for “Acetamido Cetyl Dimethyl Ammonium Glucuronate [CDA-gluc]”, the “average diameter (DLS)” value was 14 nm.

The values above are taken from patent publication US20160367705A1, “NANOPARTICLES COMPRISED OF SHELLS ASSOCIATED WITH CHARGED ENTITIES AND FORMED FROM MONOMERS AND METHODS OF MAKING AND USING NANOPARTICLES” (New York University, priority 2015, published 2016).
